PMC8113459, “Selective inhibition of cullin 3 neddylation through covalent targeting DCN1 protects mice from acetaminophen-induced liver toxicity” (Nature Communications, 2021)

Assays:
[1] = system: p21, BIM and CDT1 proteins; assay: Western blot, CRL1 and CRL4A substrates; assay type: cell-based, human
Experimental: (§1) Western blotting was performed as described previously. Treated cells were lysed by RIPA buffer supplemented with protease inhibitor. The expression level of indicated proteins was examined by immunoblotting analysis and GAPDH was used as the loading control. Antibodies were purchased commercially: cullin 1 (sc-17775, 1:500 dilution) and cullin 2 (sc-166506, 1:500 dilution) from Santa Cruz Biotech (Santa Cruz, CA); cullin 4A (PA5-14542, 1:1000 dilution), cullin 4B (PA5-50647, 1:1000 dilution), and DCN3 (DCUN1D3, PA5-44000, 1:1000 dilution) from Thermo Fisher Scientific (Wayne, MI); cullin 3 (2759, 1:1000), NRF2 (12721, 1:1000 dilution), HO-1 (70081, 1:1000 dilution), and Bim (2819, 1:1000 dilution) from Cell Signaling Technology (Boston, MA); DCN1 (GWB-E3D700, 1:1000 dilution) from GenWay Biotech (San Diego, CA); and cullin 5 (A302-173A, 1:500 dilution) from Bethyl Labs (Montgomery, TX). Results are representative of two independent experiments.

neddylation of cullin 3 = assay: Western blot, cullin 3 neddylation in U2OS cells; assay type: cell-based, human; details: for concentration as low as which cullin 3 neddylation is inhibited / potency in inhibition of cullin 3 neddylation compared with DI-591 / times more potent than DI-591 in inhibition of cullin 3 neddylation: 24 h, Fig. 1c
Experimental: as §1

DCN1 [2] = molecular target: T1, DCN1 (Homo sapiens, UniProt Q96GG9); assay: Intact-protein mass spectrometric analysis of covalent complex formation, Method A; assay type: binding; details: for Percentage of the formation of covalent complex with DCN1 protein: 37 °C
Excerpt: MassHunter Qualitative Analysis software (Agilent) was used to analyze the data. Intact protein masses were obtained using the maximum entropy deconvolution algorithm. The mass spectrometry data in Supplementary Figs. 1–11 were generated by Method A.
Target sequence in this assay (Q96GG9 58-259 limits assumed): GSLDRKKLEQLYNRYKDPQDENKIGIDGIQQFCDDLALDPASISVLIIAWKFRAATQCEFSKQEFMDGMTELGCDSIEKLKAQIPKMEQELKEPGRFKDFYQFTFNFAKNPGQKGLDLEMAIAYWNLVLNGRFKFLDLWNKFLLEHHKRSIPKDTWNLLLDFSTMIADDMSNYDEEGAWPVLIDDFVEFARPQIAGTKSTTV

KEAP1 and p62 proteins = assay: Western blot, KEAP1 and p62 in U2OS and THLE2 cells; assay type: cell-based, human; details: 6 h
Experimental: as §1
Supplementary Figure 22. Western blotting analysis of Keap1 and p62 in U2OS cells (a) and […]
The cells were treated with compounds as indicated for 6 h. Treated cells were harvested and lysed with RIPA buffer. The expression of P62 and Keap1 were examined by western blotting analysis. Antibody information:
Keap1 (cst, #8047), P62 (cst,#5114). GAPDH was used as a loading control. Representative images of two independent experiments are shown. […]

DCN3 protein = DCN3 protein (Homo sapiens, UniProt Q8IWE4); assay: Intact-protein mass spectrometric analysis, Method B (DCN3); assay type: binding; details: 3 h incubation
Experimental: Method B: Recombinant DCN1 or DCN3 protein (100 nM in 25 mM Tris 7.5, 200 mM NaCl, 1 mM DTT buffer) was incubated with 1.2-fold excess of the DCN1 inhibitors at 37 °C for 10 min, 1 h, or 3 h. Following incubation, the protein was analyzed by LC–MS (Agilent Q-TOF 6545) under the following conditions: fragmentor voltage, 300 V; skimmer voltage, 75 V; nozzle voltage, 100 V; sheath gas temperature, 350 °C; and drying gas temperature, 325 °C. MassHunter Qualitative Analysis software (Agilent) was used to analyze the data. Intact protein masses were obtained using the maximum entropy deconvolution algorithm. The mass spectrometry data in Supplementary Figs. 14–17 were generated by Method B.

DCN1 [3] = molecular target: T1, DCN1; assay: Cocrystal structures of lyso-DCN1-inhibitor complexes; set-up: to DCN1 residues 62–251; His6 (N); TEV cleavage site (N); lysozyme residues 1–164 with C54T, C97A, A146T, D127A, R154A (fusion partner, N-terminal of DCN1); made in house; host or cells: Rosetta 2 cells (E. coli)
Experimental: Lysozyme–DCN1 gene was synthesized fusing lysozyme residues 1–164, containing mutations (C54T, C97A, A146T, D127A, and R154A), to DCN1 residues 62–251. Ligation independent cloning was utilized to clone the fused gene into an N-terminal His6–TEV expression vector. The clone was transformed into Rosetta 2 cells, grown in terrific broth at 37 °C, and expressed overnight with 0.4 mM isopropyl β-D-1-thiogalactopyranoside at 20 °C. Pelleted cells were freeze-thawed and lysed in 25 mM HEPES, pH 7.5, 150 mM NaCl, 0.1% β-mercaptoethanol and protease inhibitors. Cellular debris was removed via centrifugation. The supernatant was loaded onto a Ni-NTA (Qiagen) column at 4 °C. The column was washed with 25 mM HEPES, pH 7.5, 150 mM NaCl, and 20 mM imidazole, then protein eluted with buffer containing 300 mM imidazole. The eluate was applied to a Superdex 200 (GE Healthcare) equilibrated with 25 mM HEPES, pH 7.5, 200 mM NaCl, and 1 mM DTT. The protein was judged to be greater than 95% pure by SDS-PAGE, concentrated to 3.5 mg/mL and stored at −80 °C. Yield was 450 mg/L of expressed media.
Lyso–DCN1 protein was thawed and concentrated to 9.9 mg/mL in 25 mM HEPES, pH 7.5, 200 mM NaCl, and 1 mM DTT. Each compound was incubated with protein in a 1:1.2 protein to compound molar ratio overnight at 4 °C, then spun and setup in sitting drop vapor diffusion experiments. Crystallization drops contained 2 µL of protein–inhibitor solution and 1 µL of well solution. Crystals grew at 20 °C with well solution containing 28–33% PEG 3350 and 200 mM ammonium formate. Crystals were cryoprotected in 25 mM HEPES, pH 7.5, 200 mM NaCl, 30% PEG 3350, and 1 mM DTT.
Diffraction data were collected at a wavelength of 0.9786 Å on the APS LS-CAT 21-ID-G beamline at Argonne National Laboratory. Data were processed using HKL2000[44] and solved via molecular replacement using molrep[45] with two independent search models (lysozyme and DCN1) from PDB ID 5V83. The structures were iteratively fit and refined using Coot[46] and Buster[47]. […]
Target sequence in this assay (Q96GG9 62-251): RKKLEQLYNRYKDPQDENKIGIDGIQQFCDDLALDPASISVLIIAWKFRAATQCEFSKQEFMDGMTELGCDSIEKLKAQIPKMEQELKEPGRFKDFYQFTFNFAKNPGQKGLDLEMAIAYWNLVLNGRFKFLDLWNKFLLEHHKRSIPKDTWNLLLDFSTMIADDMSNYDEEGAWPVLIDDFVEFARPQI

NRF2 protein = assay: Western blot, NRF2 protein accumulation in cells; assay type: cell-based, human
Experimental: as §1

[4] = 10 min incubation, 1.2-fold excess inhibitor

Sequence of DCN3 protein (Q8IWE4 86-304 limits assumed): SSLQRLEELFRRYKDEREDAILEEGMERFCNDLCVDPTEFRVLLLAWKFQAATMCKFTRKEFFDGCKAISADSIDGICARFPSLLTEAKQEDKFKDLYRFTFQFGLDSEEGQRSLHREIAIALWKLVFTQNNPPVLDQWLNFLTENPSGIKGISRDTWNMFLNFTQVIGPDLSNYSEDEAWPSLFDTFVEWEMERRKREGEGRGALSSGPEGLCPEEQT

C=C(CN(C)C)C(=O)NC[C@@H](NC(=O)[C@H](Cc1nc2ccc(C(C)C)cc2s1)NC(=O)CC)C1CCCCC1 [DI-1859] was tested, and the “effect on protein level of CDT1” value ([1]; THLE2, Fig. 6b) was “no effect”, the “concentration as low as which cullin 3 neddylation is inhibited” value (neddylation of cullin 3) was at most 1 nM and the “potency in inhibition of cullin 3 neddylation compared with DI-591” value (neddylation of cullin 3) was “much more potent than DI-591”. For the same compound, the “times more potent than DI-591 in inhibition of cullin 3 neddylation” value (neddylation of cullin 3) was ~ 1000 times, the “covalent complex formation / reaction kinetics with DCN1 protein (in words)” value (DCN1 [2]) was “very fast covalent complex formation” and the “Percentage of the formation of covalent complex with DCN1 protein” value (shortened to “Percentage”) (DCN1 [2]; [4]) was 100%. The “Percentage” value (DCN1 [2]; 60 min (1 h) incubation) was 100%, the “Percentage” value (DCN1 [2]; 180 min (3 h) incubation) was 100% and the “effect on protein levels of KEAP1 and p62” value (KEAP1 and p62 proteins) was “no obvious effect”. For the same compound, the “covalent complex formation with DCN3” value (DCN3 protein) was “fail to form any detectable complex”, the “covalent bond to Cys115 of DCN1 in the cocrystal structure” value (DCN1 [3]) was “confirmed the covalent nature of these complexes” and the “times more potent than DI-591 in inducing accumulation of NRF2 protein” value (NRF2 protein) was 100–1000 times.
With C=C(CN1CCOCC1)C(=O)NC[C@@H](NC(=O)[C@H](Cc1nc2ccc(C(C)C)cc2s1)NC(=O)CC)C1CCCCC1 [DI-1548] the “effect on the levels of p21, BIM and CDT1 proteins” value ([1]; concentrations up to 1000 nM) was “no effect”, the “concentration as low as which cullin 3 neddylation is inhibited” value (neddylation of cullin 3) was at most 1 nM and the “potency in inhibition of cullin 3 neddylation compared with DI-591” value (neddylation of cullin 3) was “much more potent than DI-591”. The “times more potent than DI-591 in inhibition of cullin 3 neddylation” value (neddylation of cullin 3) was ~ 1000 times, the “time within which the neddylation of cullin 3 is effectively inhibited” value (neddylation of cullin 3; U2OS, Fig. 6c) was at most 5 min and the “covalent complex formation / reaction kinetics with DCN1 protein (in words)” value (DCN1 [2]) was “very fast covalent complex formation”. For the same compound, the “Percentage” value (DCN1 [2]; [4]) was 100%, the “Percentage” value (DCN1 [2]; 60 min (1 h) incubation) was 100% and the “Percentage” value (DCN1 [2]; 180 min (3 h) incubation) was 100%. For the same compound, the “effect on protein levels of KEAP1 and p62” value (KEAP1 and p62 proteins) was “no obvious effect”, the “covalent complex formation with DCN3” value (DCN3 protein) was “fail to form any detectable complex” and the “covalent bond to Cys115 of DCN1 in the cocrystal structure” value (DCN1 [3]) was “confirmed the covalent nature of these complexes”. For the same compound, the “times more potent than DI-591 in inducing accumulation of NRF2 protein” value (NRF2 protein) was 100–1000 times.
